# According to US5087704A, “Cyanine compounds” (Asahi Chemical Co., Ltd., priority 1988, dated 1992):
# What was measured:
# [1] = Wavelength at maximum absorption and molar absorptivity of the cyanine compounds; assay type: physicochemical
# Solubility in solvent = assay type: physicochemical; settings: diacetone alcohol, room temperature
# Description: Each of cyanine dyes as shown below in Table 2 was dissolved in diacetone alcohol and the solubility was measured at room temperature.
Compound,wavelength at maximum absorption (λmax) ([1]; solvent not given),molar absorptivity (ε) [1],wavelength at maximum absorption (λmax) ([1]; diacetone alcohol),Solubility (Solubility in solvent),wavelength at maximum absorption (λmax) ([1]; methanol),Solubility (g/l) (Solubility in solvent)
CCCCN1C(=CC=CC=CC=CC2=[N+](CCCC)c3cc4c(cc3C2(C)C)OC(C)C4)C(C)(C)c2cc3c(cc21)CC(C)O3 (centres unmarked) [Preparation Example 12],,193000 L/mol/cm,,,795 nm,
CCCCN1C(=CC=CC=CC2=[N+](CCCC)c3cc4c(cc3C2(C)C)OCO4)C(C)(C)c2cc3c(cc21)OCO3 [Preparation Example 1],,176000 L/mol/cm,,,696 nm,At least 30 g/l
CC1(C)C(=CC=CC=CC=CC2=[N+](CCS(=O)(=O)O)c3cc4c(cc3C2(C)C)OCO4)N(CCS(=O)(=O)O)c2cc3c(cc21)OCO3 [Preparation Example 11],,160000 L/mol/cm,,,790 nm,
CC1(C)C(=CC=CC=CC2=[N+](CCO)c3cc4c(cc3C2(C)C)OCO4)N(CCO)c2cc3c(cc21)OCO3 [Preparation Example 10],,,695 nm,,,At least 30 g/l
CCCCN1C(=CC=CC=CC2=[N+](CCCC)c3cc4c(cc3C2(C)C)OC(C)C4)C(C)(C)c2cc3c(cc21)CC(C)O3 (centres unmarked) [Preparation Example 4],,194000 L/mol/cm,695 nm,,,At least 30 g/l
CCCCN1C(=CC=CC=CC2=[N+](CCCC)c3cc4c(cc3C2(C)C)CC(C)O4)C(C)(C)c2cc3c(cc21)OC(C)C3 (centres unmarked) [Preparation Example 5],,190000 L/mol/cm,688 nm,,,At least 30 g/l
CCN1C(=CC=CC=CC2=[N+](CC)c3cc4c(cc3C2(C)C)OCO4)C(C)(C)c2cc3c(cc21)OCO3 [Preparation Example 2],,,,30 mg/mL,694 nm,

# Results, then the molecule that gave them:
wavelength at maximum absorption (λmax) ([1]; solvent not given),molar absorptivity (ε) [1],wavelength at maximum absorption (λmax) ([1]; diacetone alcohol),Solubility (Solubility in solvent),wavelength at maximum absorption (λmax) ([1]; methanol),Solubility (g/l) (Solubility in solvent),Compound
768 nm,,,,,,COCCN1C(=CC=CC=CC=CC2=[N+](CCOC)c3cc4c(cc3C2(C)C)CCC4)C(C)(C)c2cc3c(cc21)CCC3 [Preparation Example 9]
,220000 L/mol/cm,672 nm,30 mg/mL,,,CCOCCN1C(=CC=CC=CC2=[N+](CCOCC)c3cc4c(cc3C2(C)C)CCC4)C(C)(C)c2cc3c(cc21)CCC3 [Preparation Example 7]
,224000 L/mol/cm,670 nm,,,,CCCCN1C(=CC=CC=CC2=[N+](CCCC)c3cc4c(cc3C2(C)C)CCC4)C(C)(C)c2cc3c(cc21)CCC3 [Preparation Example 6]
768 nm,228000 L/mol/cm,,,,,CC(=O)OCCN1C(=CC=CC=CC=CC2=[N+](CCOC(C)=O)c3cc4c(cc3C2(C)C)CCC4)C(C)(C)c2cc3c(cc21)CCC3 [Preparation Example 8]
,,,,793 nm,,COCCN1C(=CC=CC=CC=CC2=[N+](CCOC)c3cc4c(cc3C2(C)C)OCO4)C(C)(C)c2cc3c(cc21)OCO3 [Preparation Example 3]
